The values below come from patent publication US9925189B2, “Heterocyclic receptor agonists for the treatment of diabetes and metabolic disorders” (CymaBay Therapeutics, Inc., priority 2006, dated 2018).

The assay has as its target T1, IC-GPCR2 (Homo sapiens, UniProt Q8TDV5, S309L).
T1 construct: expressed in transfected cells
T1 sequence (Q8TDV5 1-335 S309L): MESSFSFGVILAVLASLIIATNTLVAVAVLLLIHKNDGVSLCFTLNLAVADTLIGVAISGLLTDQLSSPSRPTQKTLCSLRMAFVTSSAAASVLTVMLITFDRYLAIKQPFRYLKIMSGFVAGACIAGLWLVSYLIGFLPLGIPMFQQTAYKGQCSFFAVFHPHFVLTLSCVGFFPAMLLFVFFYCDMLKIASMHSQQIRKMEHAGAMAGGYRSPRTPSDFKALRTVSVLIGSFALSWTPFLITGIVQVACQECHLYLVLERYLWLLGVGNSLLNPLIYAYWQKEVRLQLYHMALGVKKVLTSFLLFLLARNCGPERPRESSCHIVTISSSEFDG
The experiment in a line: Stimulation of cAMP in CHO cells stably expressing IC-GPCR2 (HTRF cAMP assay). The format is cell-based. On the set-up: key to Activity at 10 uM: *: no activity observed when tested at 10 micromolar but no higher concentrations were tested. Particulars: for activation at 10 µM: 0.5 h, 30 minutes, IC-GPCR2 stably expressing CHO cells, read-out: Activity at 10 uM (% change in FRET signal from DMSO control). In a few lines:
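CHO cells stably expressing IC-GPCR2, plated at 17500 cells/well, treated next day for 30 min in Ham's F12 with compounds at 6–8 concentrations from 0.00003 to 10 μM; parental CHO cells also screened. Intracellular cAMP read by HTRF competitive immunoassay (665/620 nm ratio). Activity given as % FRET change from DMSO control.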
On the technique in general: Time-resolved FRET reads energy transfer from a long-lived donor to a nearby acceptor.

As for `CCc1cnc(N2CCC(c3nc(COc4ccc(-n5cnnn5)cc4C)cs3)CC2)nc1` [Example 164, 5-Ethyl-2-{4-[4-(2-methyl-4-tetrazol-1-yl-phenoxymethyl)-thiazol-2-yl]-piperidin-1-yl}-pyrimidine], the activation at 10 µM is 68%.

For `Clc1cnc(N2CCC(c3nc(COc4ccc(-n5cnnn5)cc4Cl)cs3)CC2)nc1` [Example 165, 5-Chloro-2-{4-[4-(2-chloro-4-tetrazol-1-yl-phenoxymethyl)-thiazol-2-yl]-piperidin-1-yl}-1-pyrimidine], the activation at 10 µM was determined as 71%. On to `FC(F)(F)c1cnc(N2CCC(c3nc(COc4ccc(-n5cnnn5)cc4Cl)cs3)CC2)nc1` [Example 166, 2-{4-[4-(2-Chloro-4-tetrazol-1-yl-phenoxymethyl)-thiazol-2-yl]-piperidin-1-yl}-5-trifluoromethyl-pyrimidine], for which the activation at 10 µM turned out to be 74%. The same measure, in the same setting: for `CCc1cnc(N2CCC(c3nc(COc4ccc(-n5cnnn5)cc4)co3)CC2)nc1` [Example 169, 5-Ethyl-2-{4-[4-(4-tetrazol-1-yl-phenoxymethyl)-oxazol-2-yl]-piperidin-1-yl}-pyrimidine] the value was 85%; for `CCc1cnc(N2CCC(c3nc(COc4ccc(-n5cnnn5)cc4F)co3)CC2)nc1` [Example 170, 5-Ethyl-2-{4-[4-(2-fluoro-4-tetrazol-1-yl-phenoxymethyl)-oxazol-2-yl]-piperidin-1-yl}-pyrimidine], 75%; for `Fc1cc(-n2cnnn2)ccc1OCc1csc(C2CCN(c3ncc(C(F)(F)F)cn3)CC2)n1` [Example 171, 2-{4-[4-(2-Fluoro-4-tetrazol-1-yl-phenoxymethyl)-thiazol-2-yl]-piperidin-1-yl}-5-trifluoromethyl-pyrimidine], 76%. With `COC(=O)c1cc(C)nc(N2CCC(c3nc(COc4ccc(-n5cnnn5)cc4)cs3)CC2)n1` [Example 173, 6-Methyl-2-{4-[4-(4-tetrazol-1-yl-phenoxymethyl)-thiazol-2-yl]-piperidin-1-yl}-pyrimidine-4-carboxylic acid methyl ester], the activation at 10 µM was found to be 75%.

As for `Cc1cc(C(=O)O)nc(N2CCC(c3nc(COc4ccc(-n5cnnn5)cc4)cs3)CC2)n1` [Example 176, 6-Methyl-2-{4-[4-(4-tetrazol-1-yl-phenoxymethyl)-thiazol-2-yl]-piperidin-1-yl}-pyrimidine-4-carboxylic acid], the activation at 10 µM came out at 43%. Same read-out and setting: for `Fc1ccnc(N2CCC(c3nc(COc4ccc(-n5cnnn5)cc4)cs3)CC2)n1` [Example 178, 4-Fluoro-2-{4-[4-(4-tetrazol-1-yl-phenoxymethyl)-thiazol-2-yl]-piperidin-1-yl}-pyrimidine] the value was 39%; for `CCOC(=O)c1cnc(N2CCC(c3nc(COc4ccc(-n5cnnn5)cc4)cs3)CC2)s1` [Example 180, 2-{4-[4-(4-Tetrazol-1-yl-phenoxymethyl)-thiazol-2-yl]-piperidin-1-yl}-thiazole-5-carboxylic acid ethyl ester], 59%. Still for that read-out and setting: next, `CCc1cnc(N2CCC(c3nc(COc4ccc(-n5cnnn5)nc4)cs3)CC2)nc1` [Example 182, 5-Ethyl-2-{4-[4-(6-tetrazol-1-yl-pyridin-3-yloxymethyl)-thiazol-2-yl]-piperidin-1-yl}-pyrimidine]: 78%; `Cc1cnc(N2CCC(c3nc(COc4ccc(-n5cnnn5)nc4)cs3)CC2)nc1` [Example 183, 5-Methyl-2-{4-[4-(6-tetrazol-1-yl-pyridin-3-yloxymethyl)-thiazol-2-yl]-piperidin-1-yl}-pyrimidine]: 78%.

`Clc1cnc(N2CCC(c3nc(COc4ccc(-n5cnnn5)nc4)cs3)CC2)nc1` [Example 184, 5-Chloro-2-{4-[4-(6-tetrazol-1-yl-pyridin-3-yloxymethyl)-thiazol-2-yl]-piperidin-1-yl}-pyrimidine]: the activation at 10 µM worked out at 69%.

As for `FC(F)(F)c1cnc(N2CCC(c3nc(COc4ccc(-n5cnnn5)nc4)cs3)CC2)nc1` [Example 185, 2-{4-[4-(6-Tetrazol-1-yl-pyridin-3-yloxymethyl)-thiazol-2-yl]-piperidin-1-yl}-5-trifluoromethyl-pyrimidine], the activation at 10 µM was determined as 83%. On the same count and under the same terms, for `Clc1ccc(N2CCC(c3nc(COc4ccc(-n5cnnn5)cc4)cs3)CC2)nn1` [Example 186, 3-Chloro-6-{4-[4-(4-tetrazol-1-yl-phenoxymethyl)-thiazol-2-yl]-piperidin-1-yl}-pyridazine] the value was 80%; for `c1cc(-n2cnnn2)ccc1OCc1csc(C2CCN(c3cnc(-n4cnnn4)cn3)CC2)n1` [Example 187, 2-Tetrazol-1-yl-5-{4-[4-(4-tetrazol-1-yl-phenoxymethyl)-thiazol-2-yl]-piperidin-1-yl}-pyrazine], 75%; for `CCc1cnc(N2CCC(c3nc(CNc4ccc(F)nc4)cs3)CC2)nc1` [Example 188, {2-[1-(5-Ethyl-pyrimidin-2-yl)-piperidin-4-yl]-thiazol-4-ylmethyl}-(6-fluoro-pyridin-3-yl)-amine], 69%. The same measure, in the same setting: for `CCc1cnc(N2CCC(c3nc(COc4c(F)cc(S(C)(=O)=O)cc4F)cs3)CC2)nc1` [Example 189, 2-{4-[4-(2,6-Difluoro-4-methanesulfonyl-phenoxymethyl)-thiazol-2-yl]-piperidin-1-yl}-5-ethyl-pyrimidine] the value was 76%; for `CCCCc1cnc(N2CCC(c3nc(COc4ccc(-n5cnnn5)cc4)cs3)CC2)nc1` [Example 190, 5-Butyl-2-{4-[4-(4-tetrazol-1-yl-phenoxymethyl)-thiazol-2-yl]-piperidin-1-yl}-pyrimidine], 77%; for `CCc1cnc(N2CCC(c3nc(COc4ccc(N5CCOCC5)cc4)cs3)CC2)nc1` [Example 191, 4-(4-{2-[1-(5-Ethyl-pyrimidin-2-yl)-piperidin-4-yl]-thiazol-4-ylmethoxy}-phenyl)-morpholine], 74%. On the same count and under the same terms, next, `O=[N+]([O-])c1cnc(N2CCC(c3nc(COc4ccc(-n5cnnn5)cc4)cs3)CC2)nc1` [Example 192, 5-Nitro-2-{4-[4-(4-tetrazol-1-yl-phenoxymethyl)-thiazol-2-yl]-piperidin-1-yl}-pyrimidine]: 74%; `FC(F)(F)c1cnc(N2CCC(c3nc(COc4ccc(-n5cnnn5)cc4)cs3)CC2)c(Cl)c1` [Example 193, 3′-Chloro-4-[4-(4-tetrazol-1-yl-phenoxymethyl)-thiazol-2-yl]-5′-trifluoromethyl-3,4,5,6-tetrahydro-2H-[1,2′]bipyridinyl]: 35%; `Fc1cc(-n2cnnn2)ccc1OCc1csc(C2CCN(c3ncc(C(F)(F)F)cc3Cl)CC2)n1` [Example 194, 3′-Chloro-4-[4-(2-fluoro-4-tetrazol-1-yl-phenoxymethyl)-thiazol-2-yl]-5′-trifluoromethyl-3,4,5,6-tetrahydro-2H-[1,2′]bipyridinyl]: 29%. As for `Fc1cc(-n2cnnn2)ccc1OCc1csc(C2CCN(c3ncc(Cl)cn3)CC2)n1` [Example 195, 5-Chloro-2-{4-[4-(2-fluoro-4-tetrazol-1-yl-phenoxymethyl)-thiazol-2-yl]-piperidin-1-yl}-pyrimidine], the activation at 10 µM was 68%. The same measure, in the same setting: for `Clc1cnc(N2CCC(c3nc(COc4ccc(-n5cnnn5)cc4)cs3)CC2)c(Cl)c1` [Example 196, 3′,5′-Dichloro-4-[4-(4-tetrazol-1-yl-phenoxymethyl)-thiazol-2-yl]-3,4,5,6-tetrahydro-2H-[1,2′]bipyridinyl] the value was 19%.

As to `CCOC(=O)c1cnc(N2CCC(c3nc(COc4ccc(-n5cnnn5)cc4)cs3)CC2)c(Cl)c1` [Example 197, 3′-Chloro-4-[4-(4-tetrazol-1-yl-phenoxymethyl)-thiazol-2-yl]-3,4,5,6-tetrahydro-2H-[1,2′]bipyridinyl-5′-carboxylic acid ethyl ester], for the setting “symbol entry”, the “Activity at 10 uM” value is on record as “*”.

As for `COC(=O)c1cc(Cl)cnc1N1CCC(c2nc(COc3ccc(-n4cnnn4)cc3)cs2)CC1` [Example 198, 5′-Chloro-4-[4-(4-tetrazol-1-yl-phenoxymethyl)-thiazol-2-yl]-3,4,5,6-tetrahydro-2H-[1,2′]bipyridinyl-3′-carboxylic acid methyl ester], the activation at 10 µM was found to be 15%. The same measure, in the same setting: for `CCc1cnc(N2CCC(c3nc(COCc4ccc(S(C)(=O)=O)cc4)cs3)CC2)nc1` [Example 203, 5-Ethyl-2-{4-[4-(4-methanesulfonyl-benzyloxymethyl)-thiazol-2-yl]-piperidin-1-yl}-pyrimidine] the value was 76%; for `FC(F)(F)c1cnc(N2CCC(c3nc(COc4ccc(-n5cnnn5)cc4)cs3)CC2)nc1` [Example 205], 75%.
